# Key:
# mouse = assay: Single oral dose toxicity in mouse; assay type: in vivo
# [1] = system: nerve growth factor production by L-M cells; assay: Enhancement of nerve growth factor production in L-M cells (enzyme immunoassay); assay type: cell-based, Rat
# Protocol: Rat fibroblast L-M cells (ATCC CCL-1.2) were suspended in a M199 medium (Gibco) containing 0.5% Bacto Peptone (Gibco) at a concentration of 1.0 x 10^5 cells/ml. 1 ml of the suspension was inoculated into each well of a 24-well plate. The cells were cultured aseptically. After culturing for 2 days, the medium was removed and substituted with a M199 medium containing 0.5% bovine serum albumin (Sigma). Then, cyclopentenone (final concentration of 1 to 25 µM), 4HCP (Aldrich) (final concentration of 12.5µM) or dipropionylcyclopentenone (final concentration of 3.1 to 9.4 µM) was added thereto. […]
# After completion of the incubation, the concentration of nerve growth factor in the culture was measured by enzyme immunoassay (NGF Emax Immuno Assay System: Promega). […]
# [2] = system: human insulin-like growth factor-1 (h-IGF-1) production in Hs68 cells; assay: Enhancement of h-IGF-1 production in Hs68 cells (ELISA); assay type: cell-based
# Protocol: (1) Human newborn foreskin […] Hs68 cells (ATCC CRL-1635) were cultured in a D-MEM medium (Bio Whittaker) containing 10% fetal calf serum (FBS; Gibco BRL) in the presence of 5% CO2 at 37°C to saturation in a culture vessel. Then, the cells were suspended in the medium at a concentration of 3 x 10^5/ml using a trypsin-EDTA solution (Bio Whittaker). 200 µl of the suspension was dispensed into each well of a 96-well microtiter plate. When the cells were almost saturated in the culture vessel after culturing for 5 days, the medium was discarded and a medium containing 4HCP at a concentration of 40, 100 or 200 µM was added thereto. The culture supernatant was recovered at intervals of 24 hours for up to 96 hours. The effect of 4HCP on enhancement of human insulin-like growth factor-1 (h-IGF-1) production in Hs68 cells was determined using ELISA-Kit for h-IGF-1 (Diagnostic System Labo).
# (2) Hs68 cells were cultured in a D-MEM medium containing 10% fetal calf serum in the presence of 5% CO2 at 37°C to saturation in a culture vessel. Then, the cells were suspended in the medium at a concentration of 3 x 10^5/ml using a trypsin-EDTA solution. 200 µl of the suspension was dispensed into each well of a 96-well microtiter plate. When the cells were almost saturated in the culture vessel after culturing for 5 to 7 days, the medium was discarded and the medium containing cyclopentenone or GM at a concentration of 0, 2.5, 5, 10 or 20 µM was added thereto. The culture supernatant was recovered at 1, 3, 6, 12, 24 or 48 hours. The effect of cyclopentenone or GM on the production (enhancement of expression) of h-IGF-1 in Hs68 cells was determined using ELISA-Kit for h-IGF-1. […] The amount of h-IGF-1 produced 6 hours after the addition was about twice the amount for the control with no addition. […] (3) Hs68 cells were cultured in a D-MEM medium containing 10% fetal calf serum in the presence of 5% CO2 at 37°C to saturation in a culture vessel. Then, the cells were suspended in the medium at a concentration of 3 x 10^5/ml using a trypsin-EDTA solution. 200 µl of the suspension was dispensed into each well of a 96-well microtiter plate. When the cells were almost saturated in the culture vessel after culturing for 5 to 7 days, the medium was discarded and the medium containing 4HCP, a compound of formula (XVIII) (4HCP-GSH) or glutathione (GSH) at a concentration of 0, 25, 50, 100 or 200 µM was added thereto. The culture supernatant was recovered at 1, 3, 6, 12, 24 or 48 hours. The effect on the production (enhancement of expression) of h-IGF-1 in Hs68 cells was determined using ELISA-Kit for h-IGF-1. As a result, when 4HCP was added at a concentration of 25 to 200 µM, h-IGF production in Hs68 cells became maximal at 1 hour and decreased thereafter as the time went by. […] Significant enhancement of h-IGF-1 production was observed when cultured for 10 to 30 minutes. […]
# [3] = system: HGF production, MRC-5 cells; assay: Enhancement of HGF production in MRC-5 cells (ELISA); assay type: cell-based, Human; conditions: 24 hours, negative control defined as 100% (7.2 ng/ml)
# Protocol: MRC-5 cells (CCL171, Dainippon Pharmaceutical) were suspended in a DME medium (Bio Whittaker) containing 10% fetal calf serum at a concentration of 1 x 10^5 cells/ml. 500 µl of the suspension was placed into a 48-well cell culture plate. After culturing at 37°C in the presence of 5% CO2 for 24 hours, the medium was exchanged for a DME medium containing 1% fetal calf serum. Then, one of samples was added thereto. The plate was incubated for additional 24 hours. The medium was then recovered, and the amount of HGF in the culture medium was measured using Quantikine Human Hepatocyte Growth Factor (HGF) ELISA Kit (Funakoshi). The amount of HGF produced was expressed defining a negative control as 100%. In this case, the amount of HGF produced for the negative control was 7.2 ng/ml. Cyclopentenone (at a final concentration of 20, 40 or 160 µM), GM (at a final concentration of 20, 40, 80 or 160 µM), or dipropionylcyclopentenone (at a final concentration of 32 or 64 µM) was added as a sample. As a negative control, distilled water was added in the same volume as the sample. As a positive control, prostaglandin E1 was added at a final concentration of 0.01, 0.1, 1 or 10 µM.
# [4] = single dose orally administered to a mouse at 100 mg/kg
# [5] = Example 3-(3): 100 µM, cultivation time 1 hour, control 7.2
# [6] = Example 3-(3): 100 µM, cultivation time 3 hour, control 8.9
# [7] = Example 3-(3): 100 µM, cultivation time 6 hour, control 6.3
# [8] = Example 3-(3): 100 µM, cultivation time 12 hour, control 0
# [9] = Example 3-(3): 100 µM, cultivation time 24 hour, control 0
# [10] = Example 3-(3): 100 µM, cultivation time 48 hour, control 0
# [11] = Example 3-(3): 200 µM, cultivation time 1 hour, control 7.2
# [12] = Example 3-(3): 200 µM, cultivation time 3 hour, control 8.9
# [13] = Example 3-(3): 200 µM, cultivation time 6 hour, control 6.3
# [14] = Example 3-(3): 200 µM, cultivation time 12 hour, control 0
# [15] = Example 3-(3): 200 µM, cultivation time 24 hour, control 0
# [16] = Example 3-(3): 200 µM, cultivation time 48 hour, control 0
compound,measurement,setting,value
O=C(OC1C=CC(=O)C1OC(=O)c1ccccc1)c1ccccc1 (stereo not shown),death after single oral dose,mouse; [4],no example of death was observed
"CC(C)(C)OC1C=CC(=O)C1OC(C)(C)C (stereo not shown) [4,5-di-t-butylcyclopentenone ether]",death after single oral dose,"mouse; mouse, in vivo, po, 100 mg/kg",no example of death was observed
"O=C1C=CC(O)C1 (stereo not shown) [4HCP, 4-hydroxy-2-cyclopenten-1-one]",death after single oral dose,"mouse; mouse, in vivo, po, 100 mg/kg",no example of death was observed
same,Nerve growth factor concentration,"[1]; 12.5 µM, 24 hours, 0 µM control 0.138 (Table 2)",0.327 ng/mL
same,production of nerve growth factor by L-M cells (result in words),[1]; 24 hours incubation,enhanced the production of nerve growth factor by L-M cells in a concentration-dependent manner
same,Activity of enhancing h-IGF-1 production,"[2]; Example 3-(1): 40 µM, cultivation time 24 hour, control 0",0 ng/mL
same,Activity of enhancing h-IGF-1 production,"[2]; Example 3-(1): 40 µM, cultivation time 48 hour, control 0",0 ng/mL
same,Activity of enhancing h-IGF-1 production,"[2]; Example 3-(1): 40 µM, cultivation time 72 hour, control 0",0 ng/mL
same,Activity of enhancing h-IGF-1 production,"[2]; Example 3-(1): 40 µM, cultivation time 96 hour, control 0",0 ng/mL
same,time at which the activity of enhancing h-IGF production in Hs68 cells became maximal,"[2]; Example 3-(1): 100 µM or more, sampled at 24, 48, 72, 96 hours",24 h
same,Activity of enhancing h-IGF-1 production,"[2]; Example 3-(1): 100 µM, cultivation time 24 hour, control 0",39.9 ng/mL
same,Activity of enhancing h-IGF-1 production,"[2]; Example 3-(1): 100 µM, cultivation time 48 hour, control 0",10.0 ng/mL
same,Activity of enhancing h-IGF-1 production,"[2]; Example 3-(1): 100 µM, cultivation time 72 hour, control 0",9.6 ng/mL
same,Activity of enhancing h-IGF-1 production,"[2]; Example 3-(1): 100 µM, cultivation time 96 hour, control 0",4.4 ng/mL
same,Activity of enhancing h-IGF-1 production,"[2]; Example 3-(1): 200 µM, cultivation time 24 hour, control 0",37.9 ng/mL
same,Activity of enhancing h-IGF-1 production,"[2]; Example 3-(1): 200 µM, cultivation time 48 hour, control 0",10.4 ng/mL
same,Activity of enhancing h-IGF-1 production,"[2]; Example 3-(1): 200 µM, cultivation time 72 hour, control 0",9.9 ng/mL
same,Activity of enhancing h-IGF-1 production,"[2]; Example 3-(1): 200 µM, cultivation time 96 hour, control 0",4.2 ng/mL
same,Activity of enhancing IGF-1 production,"[2]; Example 3-(3): 25 µM, cultivation time 1 hour, control 7.2",30.6 ng/mL
same,Activity of enhancing IGF-1 production,"[2]; Example 3-(3): 25 µM, cultivation time 3 hour, control 8.9",29.5 ng/mL
same,Activity of enhancing IGF-1 production,"[2]; Example 3-(3): 25 µM, cultivation time 6 hour, control 6.3",9.6 ng/mL
same,Activity of enhancing IGF-1 production,"[2]; Example 3-(3): 25 µM, cultivation time 12 hour, control 0",0 ng/mL
same,Activity of enhancing IGF-1 production,"[2]; Example 3-(3): 25 µM, cultivation time 24 hour, control 0",0 ng/mL
same,Activity of enhancing IGF-1 production,"[2]; Example 3-(3): 25 µM, cultivation time 48 hour, control 0",0 ng/mL
same,Activity of enhancing IGF-1 production,"[2]; Example 3-(3): 50 µM, cultivation time 1 hour, control 7.2",49.5 ng/mL
same,Activity of enhancing IGF-1 production,"[2]; Example 3-(3): 50 µM, cultivation time 3 hour, control 8.9",42.1 ng/mL
same,Activity of enhancing IGF-1 production,"[2]; Example 3-(3): 50 µM, cultivation time 6 hour, control 6.3",27.8 ng/mL
same,Activity of enhancing IGF-1 production,"[2]; Example 3-(3): 50 µM, cultivation time 12 hour, control 0",0 ng/mL
same,Activity of enhancing IGF-1 production,"[2]; Example 3-(3): 50 µM, cultivation time 24 hour, control 0",0 ng/mL
same,Activity of enhancing IGF-1 production,"[2]; Example 3-(3): 50 µM, cultivation time 48 hour, control 0",0 ng/mL
same,expression of h-IGF-1 (result in words),"[2]; Example 3-(3): 100 µM or more, at 48 hours",expression of h-IGF-1 was observed
same,Activity of enhancing IGF-1 production,[2]; [5],52.8 ng/mL
same,Activity of enhancing IGF-1 production,[2]; [6],47.2 ng/mL
same,Activity of enhancing IGF-1 production,[2]; [7],31 ng/mL
same,Activity of enhancing IGF-1 production,[2]; [8],22.1 ng/mL
same,Activity of enhancing IGF-1 production,[2]; [9],25.6 ng/mL
same,Activity of enhancing IGF-1 production,[2]; [10],32 ng/mL
same,Activity of enhancing IGF-1 production,[2]; [11],59.2 ng/mL
same,Activity of enhancing IGF-1 production,[2]; [12],51.7 ng/mL
same,Activity of enhancing IGF-1 production,[2]; [13],44.4 ng/mL
same,Activity of enhancing IGF-1 production,[2]; [14],42.1 ng/mL
same,Activity of enhancing IGF-1 production,[2]; [15],50.3 ng/mL
same,Activity of enhancing IGF-1 production,[2]; [16],50.2 ng/mL
same,time at which h-IGF production in Hs68 cells became maximal,"[2]; Example 3-(3): 25 to 200 µM, sampled at 1 to 48 hours",1 h
NC(CCC(=O)NC(CSC1CC(=O)CC1O)C(=O)NCC(=O)O)C(=O)O (stereo not shown) [4HCP-GSH],Activity of enhancing IGF-1 production,[2]; [5],8.4 ng/mL
same,Activity of enhancing IGF-1 production,[2]; [6],12 ng/mL
same,Activity of enhancing IGF-1 production,[2]; [7],10.6 ng/mL
same,Activity of enhancing IGF-1 production,[2]; [8],6.1 ng/mL
same,Activity of enhancing IGF-1 production,[2]; [9],6.7 ng/mL
same,Activity of enhancing IGF-1 production,[2]; [10],1.4 ng/mL
same,Activity of enhancing IGF-1 production,[2]; [11],33.3 ng/mL
same,Activity of enhancing IGF-1 production,[2]; [12],37.9 ng/mL
same,Activity of enhancing IGF-1 production,[2]; [13],24.7 ng/mL
same,Activity of enhancing IGF-1 production,[2]; [14],20.4 ng/mL
same,Activity of enhancing IGF-1 production,[2]; [15],20.9 ng/mL
same,Activity of enhancing IGF-1 production,[2]; [16],27.8 ng/mL
same,activity of enhancing h-IGF-1 (result in words),[2]; Example 3-(3): 100 to 200 µM,exhibit an activity of enhancing h-IGF-1 in a concentration-dependent manner
"N[C@@H](CCC(=O)N[C@@H](CSC1C=C(O)C(=O)C1)C(=O)NCC(=O)O)C(=O)O (stereo partly shown) [GM, 2-hydroxy-4-glutathion-S-yl-2-cyclopenten-1-one]",Increase in HGF production,[3]; 20 µM,154%
same,Increase in HGF production,[3]; 40 µM,179%
same,Increase in HGF production,[3]; 80 µM,243%
same,Increase in HGF production,[3]; 160 µM,319%
same,death after single oral dose,"mouse; mouse, in vivo, po, 100 mg/kg",no example of death was observed
same,production of h-IGF-1 in Hs68 cells (result in words),[2]; Example 3-(2): 10 to 20 µM,production of h-IGF in Hs68 cells was observed 3 hours after the addition
same,amount of h-IGF-1 produced relative to the control with no addition,"[2]; Example 3-(2): 10 to 20 µM, 6 hours after the addition",about twice
CCCCCC(=O)OC1C=CC(=O)C1OC(=O)CCCCC (stereo not shown) [dihexanoylcyclopentenone],death after single oral dose,mouse; [4],no example of death was observed
"N[C@@H](CCC(=O)N[C@@H](CS)C(=O)NCC(=O)O)C(=O)O [glutathione, reference compound]",activity of enhancing h-IGF-1 (result in words),"[2]; Example 3-(3): glutathione alone added, 25 to 200 µM",no significant activity of enhancing h-IGF-1 was observed
di-2-hexenoylcyclopentenone,death after single oral dose,mouse; [4],no example of death was observed
